Reference: US20250282746A1, “HALOGEN-SUBSTITUTED ISOINDOLINE COMPOUND AND USE THEREOF” (CHENGDU FENDI PHARMACEUTICAL CO., LTD., priority 2022, published 2025)
pIC50: −log10 of the molar value.

What was measured:
[1] = biological target: T1, IKZF1 (Homo sapiens, UniProt Q13422); assay: Degradation of IKZF1 protein in HL-60 cells (Western blot); assay type: cell-based; settings: 4 h
T1 construct: The whole cell lysate was prepared using a RIPA lysis buffer; endogenous in cells; host or cells: HL-60 cells
T1 sequence (Q13422 whole entry): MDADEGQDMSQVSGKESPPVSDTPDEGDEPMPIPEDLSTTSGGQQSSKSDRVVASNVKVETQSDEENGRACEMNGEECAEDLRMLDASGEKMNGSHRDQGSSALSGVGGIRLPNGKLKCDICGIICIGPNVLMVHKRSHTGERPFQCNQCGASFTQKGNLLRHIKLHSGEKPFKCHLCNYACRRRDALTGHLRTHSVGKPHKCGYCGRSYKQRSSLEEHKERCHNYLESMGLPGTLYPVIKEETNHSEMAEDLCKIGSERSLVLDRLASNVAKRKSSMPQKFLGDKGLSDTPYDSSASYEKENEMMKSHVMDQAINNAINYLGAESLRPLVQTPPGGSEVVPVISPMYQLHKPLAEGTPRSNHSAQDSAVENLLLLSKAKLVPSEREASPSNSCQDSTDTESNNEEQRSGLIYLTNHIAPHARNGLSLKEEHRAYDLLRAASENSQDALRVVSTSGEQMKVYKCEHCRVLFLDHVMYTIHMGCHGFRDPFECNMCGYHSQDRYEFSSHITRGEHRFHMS
Description: […] of DMSO and the compounds were added, and the mixture was incubated in an incubator at 5% CO2 and 37° C. for 4 h. The cells were centrifuged, and the culture medium was discarded. PBS was added for washing and then discarded. The whole cell lysate was prepared using a RIPA lysis buffer containing a protease inhibitor cocktail and a phosphatase inhibitor, and incubated on ice for 30 min. The mixture was centrifuged, and the cell debris was discarded. The whole cell lysate supernatant was collected and transferred to a fresh EP tube. Samples were prepared using a loading buffer after a BCA protein assay. The samples were incubated in a metal bath at 100° C. for 10 min. The samples were electrophoretically separated from proteins on a 4-20% precast gel (SDS-PAGE gel), transferred to a PVDF membrane, blocked with 5% NFDM/TBST for 1 h at room temperature, co-incubated overnight at 4° C. with the primary antibody, and co-incubated for 2 h at room temperature with the secondary antibody on the next day. The signals were detected on the […]™ imaging system.

[2] = tested on: MOLM-13 cells; assay: Antiproliferative effect alone and in combination with azacitidine against MOLM-13 cells; assay type: cell-based; settings: MOLM-13 cells; for pIC50: Homo sapiens, MOLM-13, 72 h, 72 h
Description: (§1) MOLM-13 cells in the logarithmic growth phase were diluted in a medium RPMI+[…], and NCI-H929 cells were diluted in a medium RPMI+10% FBS. The cells were plated at 4,000 cells/well in 96-well whole black plates (WHB) with 50 μL/well. After plating, the plates were incubated in an incubator at 5% CO2 and 37° C. for 24 h before the compounds were added. The compounds were prepared into a 10 mM stock solution in DMSO and diluted in a culture medium to the desired concentrations (a final DMSO concentration of 0.2%). 50 μL of the compound dilutions at final concentrations of 10,000, 3,333.33, 1,111.11, 370.37, 123.46, 41.15, 13.72, 4.57, 1.52, and 0 nM were added to the 96-well plates containing the cells, that is, each compound was serially diluted to 10 concentrations in duplicate. The plates were incubated at 5% CO2 and 37° C. for 72 h. When pharmaceutical partners were used, the concentrations of azacitidine and dexamethasone were kept at 200 nM and 500 nM respectively, and the compounds were serially three-fold diluted from 10,000 nM. After the incubation was complete, the plates were equilibrated at room temperature for 30 min. CellTiter-Glo® Reagent (Promega G7573) was added at 100 μL/well. The plates were shaken for 12 min on a microplate shaker. The luminescence value was measured at room temperature by the GloMax navigator (Promega GM2010). The IC50 values were calculated using the GraphPad Prism 7 software with the 0 nM control group as 0% inhibition.

[3] = tested on: MV-4-11-Luc xenograft; assay: Efficacy in acute myeloid leukemia MV-4-11-luc xenograft mouse model; assay type: in vivo; settings: 10 mg/kg orally twice daily, NSG mice
Text: In an in vivo efficacy study, female immunocompromised NSG mice aged 6 to 8 weeks were used and the experimental procedures started after the animals were acclimatized in the experimental environment for 7 days. The animals were housed in SPF animal rooms in individually ventilated cages (IVCs) each containing 6 mice. Human acute myeloid leukemia MV-4-11 cells expressing luciferase (MV-4-11-luc) were grafted into mice by tail vein injection (5×10^6 cells/mouse). Seven days after the cell grafting, the mice were subjected to imaging on the IVIS Lumina III small animal imaging system for grouping and administration, and tumor-bearing mice were randomized to the vehicle control group or treatment groups (6 mice/group). The compound (10 mg/kg, twice daily) was administered to the animals in each treatment group by oral gavage. The body weight was measured daily, while mean luminescence was measured after the start of treatment with the compounds or vehicle.
Indicators: The indicators were to investigate whether the tumor growth was inhibited or delayed or the tumor was cured. The tumor size was measured twice weekly using the IVIS Lumina III small animal imaging system. The tumor signals were determined by exposure photons per second. The anti-tumor efficacy of the compounds was evaluated by the tumor proliferation rate T/C (%). T/C %=TRTV/CRTV×100% (TRTV: the RTV of the treatment group; CRTV: the RTV of negative control group; RTV=Vt/V0, where V0 is the tumor signal measured at the time of grouping and administration (i.e., day 0), and Vt is the tumor signal at every measurement). According to the guidelines of the Center for Drug Evaluation, NMPA, a T/C (%) of >40% denotes the absence of efficacy, while a T/C of <40% with P<0.05 denotes the presence of efficacy.

[4] = tested on: NCI-H929 cells; assay: Antiproliferative effect alone and in combination with dexamethasone against NCI-H929 cells; assay type: cell-based; settings: for pIC50: Homo sapiens, NCI-H929, 72 h, 72 h
Description: as §1

| Compound | IKZF1 degradation ([1]; 10 nM) | IKZF1 degradation ([1]; 100 nM) | IKZF1 degradation ([1]; 1000 nM) | pIC50 ([2]; compound alone) | pIC50 ([2]; in combination with 200 nM azacitidine) | activity relative to CC-90009, alone or in combination with azacitidine [2] | increase of antiproliferative activity IC50 when combined with 200 nM azacitidine [2] | T/C (%) Day 3 [3] | T/C (%) Day 7 [3] | T/C (%) Day 10 [3] | T/C (%) Day 14 [3] | increase of antiproliferative activity IC50 when combined with 500 nM dexamethasone [4] | pIC50 ([4]; compound alone) | pIC50 ([4]; in combination with 500 nM dexamethasone) |
| --- | --- | --- | --- | --- | --- | --- | --- | --- | --- | --- | --- | --- | --- | --- |
| Cc1ccc(C(=O)NCc2ccc3c(c2F)CN(C2CCC(=O)NC2=O)C3=O)c(F)c1 (stereo not drawn) [FDAB-121] | B (B denotes a percentage of degradation less than 800% but not less than 500%) | A (A denotes a percentage of GSPT1 protein degradation not less than 8000) | A (A denotes a percentage of GSPT1 protein degradation not less than 8000) | 6.61 | 8.01 | about 5 folds | about 25 folds | 0.32% | 0.06% | 0.02% | 0.00% |  |  |  |
| O=C1CCC(N2Cc3c(ccc(CNC(=O)c4ccc(Cl)cc4)c3F)C2=O)C(=O)N1 (stereo not drawn) [FDAB-48] | B (B denotes a percentage of degradation less than 800% but not less than 500%) | A (A denotes a percentage of GSPT1 protein degradation not less than 8000) | A (A denotes a percentage of GSPT1 protein degradation not less than 8000) |  |  |  |  | 0.95% | 0.22% | 0.10% | 0.05% | about 6 folds | 7.85 | 8.61 |
